These results are taken from publication PMC7866972, “Crosstalk of Cancer Signaling Pathways by Cyclic Hexapeptides and Anthraquinones from Rubia cordifolia” (Molecules, 2021).

Common to all, as to format: cell-based
One experiment deals with Stat3. The experiment can be described thus: Stat3 luciferase reporter assay (IL-6 induced). The settings on record: Homo sapiens; HeLa cells; 30 µM; compared to pTK as control; 4 h; read-out: percentage of luciferase induction Stat3/IL-6. The method, then: (§1) Hela cells from ATCC were plated in white opaque 384 well plates at a density of 4300 cells/well in 30 µL of a growth medium (DMEM with 10% FBS and 1% Pen/step). The next day, the medium was aspirated and replaced with DMEM containing 10% FBS. The cells were transfected with respective plasmids using the X-tremeGENE HP transfection reagent (Roche). Luciferase vectors used in this assay are summarized in Table S2, Supporting Information. After 24 h of transfection, the test agents were added to the transfected cells, followed 30 min later by an inducing agent (IL-6 for Stat 3, TGF-beta for Smad, m-wnt3a for Wnt and PMA for AP-1, NF-kB, E2F, Myc, ETS, Notch and Hedgehog). No inducer was added for FoXO, miR-21, and […]. After 4 h or 6 h of induction, the cells were lysed by the addition of the One-Glo luciferase assay system (Promega, Madison, WI, USA). The light output was detected in a Glomax Multi+ detection system with the Instinct Software (Promega, Madison, WI, USA). This luciferase assay determines if the test agent was able to inhibit the activation of cancer-related signaling pathways. In the case of FoxO and mi-R21, the enhanced luciferase activity by the test agent was assessed.
In general terms: A reporter such as luciferase makes a cellular process visible.

The next experiment has as its system Ets. The experiment in a line: Ets luciferase reporter assay (PMA induced). Particulars: Homo sapiens; HeLa cells; 30 µM; compared to pTK as control; 4 h; read-out: percentage of luciferase induction Ets/PMA. The method, then:
as §1

A further experiment deals with Myc. The experiment can be described thus: Myc luciferase reporter assay (PMA induced). The settings on record: Homo sapiens; HeLa cells; 30 µM; compared to pTK as control; 4 h; read-out: percentage of luciferase induction Myc/PMA. The protocol: as §1
Another experiment concerns pTK control vector. The experiment in a line: pTK control vector luciferase assay (minimal thymidine kinase promoter). The settings on record: Homo sapiens, HeLa cells, 30 µM, no inducer, read-out: percentage of luciferase induction pTK/No Induction. The method, then: as §1
A further experiment concerns Ap-1. The experiment can be described thus: AP-1 luciferase reporter assay (PMA induced). The settings on record: HeLa cells; 30 µM; compared to pTK as control; 4 h; read-out: percentage of luciferase induction Ap-1/PMA. The protocol: as §1
The test system of a further experiment is Smad. The experiment in a line: Smad luciferase reporter assay (TGF-beta induced). Particulars: Homo sapiens; HeLa cells; 30 µM; compared to pTK as control; 4 h; read-out: percentage of luciferase induction Smad/TGF-β. The method, then: as §1
The next experiment relates to E2F. The experiment in a line: E2F luciferase reporter assay (PMA induced). The settings on record: Homo sapiens; HeLa cells; 30 µM; compared to pTK as control; 4 h; read-out: percentage of luciferase induction E2F/PMA. The method, then:
as §1

The next experiment relates to Hedgehog. The experiment can be described thus: Hedgehog luciferase reporter assay (PMA induced). The settings on record: Homo sapiens; HeLa cells; 30 µM; compared to pTK as control; 6 h; read-out: percentage of luciferase induction Hdghog/PMA. The method, then: as §1
The test system of the next experiment is NF-κB. The experiment can be described thus: NF-κB luciferase reporter assay (PMA induced). Particulars: Homo sapiens; HeLa cells; 30 µM; compared to pTK as control; 4 h; read-out: percentage of luciferase induction NF-kB/PMA. The method, then: as §1
Another experiment concerns FoxO. The experiment in a line: FoxO luciferase reporter assay (no inducer). Particulars: Homo sapiens, HeLa cells, 30 µM, 6 h, read-out: percentage of luciferase induction FoxO/No Induction. The method, then:
as §1

The next experiment deals with Wnt. The experiment can be described thus: Wnt luciferase reporter assay (m-wnt3a induced). Particulars: Homo sapiens; HeLa cells; 30 µM; compared to pTK as control; 6 h; read-out: percentage of luciferase induction Wnt/m-wnt 3a. The protocol:
as §1

For the next experiment, the system named is Notch. The experiment in a line: Notch luciferase reporter assay (PMA induced). Particulars: Homo sapiens; HeLa cells; 30 µM; compared to pTK as control; 6 h; read-out: percentage of luciferase induction Notch/PMA. The method, then:
as §1

In the next experiment the test system is miR-21. The experiment can be described thus: miR-21 luciferase reporter assay (no inducer). The settings on record: Homo sapiens, HeLa cells, 30 µM, 6 h, read-out: percentage of luciferase induction mi-R21/No Induction. The method, then:
as §1

Regarding `Cc1cc(O)c2c(c1)C(=O)c1cccc(O)c1C2=O` [Compound 11, chrysophanol, reference compound], the activity at 30 µM stood at 171% with Stat3; 130% in the experiment with Ets; 144% with Myc; 183% in the experiment with pTK control vector; 115% with Ap-1; 160% with Smad. In addition, the activity at 30 µM is 251% in the experiment on E2F; 214% in the experiment on Hedgehog; 90% in the experiment on NF-κB; 102% with FoxO; 114% with Wnt; 195% in the experiment with Notch. For the same compound, the activity at 30 µM in the experiment with miR-21 came out at 280%.
On to `O=C1c2cccc(O)c2C(=O)c2c(O)cccc21` [Compound 12, danthron, reference compound], for which the activity at 30 µM in the experiment with Stat3 was determined as 137%; in the experiment with Ets it was 120%; with Myc, 115%; in the experiment with pTK control vector it was 101%; in the experiment on Ap-1 it was 122%; in the experiment with Smad it was 101%. The activity at 30 µM came to 328% with E2F; 168% in the experiment on Hedgehog; 62% in the experiment on NF-κB; 85% in the experiment with FoxO; 122% in the experiment on Wnt; 126% in the experiment with Notch. Also, in the experiment on miR-21, the activity at 30 µM is 156%.
As to `O=C1c2ccccc2C(=O)c2c(O)ccc(O)c21` [Compound 13, quinizarin, reference compound], the activity at 30 µM in the experiment with Stat3 came out at 164%; in the experiment with Ets, 127%; with Myc, 81%; in the experiment on pTK control vector, 134%; with Ap-1 it was 107%; in the experiment on Smad it was 159%. Moreover, the activity at 30 µM with E2F is 282%; in the experiment with Hedgehog, 142%; in the experiment on NF-κB, 62%; with FoxO, 101%; in the experiment with Wnt, 97%; with Notch, 198%. Besides, the activity at 30 µM in the experiment on miR-21 turned out to be 171%.
`O=C1c2cccc(O)c2C(=O)c2c(O)cc(CO)cc21` [Compound 14, aloe-emodin, reference compound]: the activity at 30 µM with Stat3 amounted to 132%; in the experiment on Ets, 128%; with Myc, 95%; in the experiment with pTK control vector, 136%; in the experiment on Ap-1, 138%; in the experiment on Smad, 78%. In addition, the activity at 30 µM in the experiment with E2F stood at 178%; in the experiment on Hedgehog, 99%; in the experiment on FoxO, 109%; in the experiment on Wnt, 129%; in the experiment on Notch, 157%; in the experiment on miR-21, 167%.
